According to patent publication US6468476B1, “Methods for using-co-regulated genesets to enhance detection and classification of gene expression patterns” (Rosetta Inpharmatics, Inc., priority 1998, dated 2002):

System: genesets (calcineurin-mediated, Gcn4-mediated)
Assay: Response profiles projected onto genesets defined by cluster analysis of 34 experiments
Format: cell-based, Saccharomyces cerevisiae
Conditions: HU at 3.1 mM
Method: Yeast (Saccharomyces cerevisiae, Strain YPH499, see, Sikorski and Hieter, 1989, A system of shuttle vectors and yeast host strains designated for efficient manipulation of DNA in Saccharomyces cerevisiae, Genetics 122:19-27) cells were grown in YAPD at 30° C. to an OD600 of 1.0 (±0.2), and total RNA prepared by breaking cells in phenol/chloroform and 0.1% SDS by standard procedures (Ausubel et al., 1995, Current Protocols in Molecular Biology, Greene Publishing and Wiley-Interscience, New York, Ch. 13). Poly(A)^+ RNA was selected by affinity chromatography on oligo-dT cellulose (New England Biolabs) essentially as described in Sambrook et al. (Molecular Cloning—A Laboratory Manual (2nd Ed.), Vol. 1, Cold Spring Harbor Laboratory, Cold Spring Harbor, N.Y., 1989). First strand cDNA synthesis was carried out with 2 μg poly(A)^+ RNA and SuperScript™ II reverse transcriptase (Gibco-BRL) according to the manufacturer's instructions with the following modifications. […]
Fluorescently-labeled cDNAs (2-6 μg) are resuspended in 4×SSC plus 1 μg/μl tRNA as carrier and filtered using […] filters (Millipore, Bedford, Mass.). […] Microarrays are scanned with a fluorescence laser-scanning device as previously described (Schena et al., 1995, Science 270:467-470; Schena et al., 1995, Proc. Natl. Acad. Sci. USA 93:[…]) and the results (including the positions of perturbations) are recorded. […]

Compound: NC(=O)NO [HU, Hydroxyurea]
- Projected profile: very weak
